The target of the assay is T1, JAK3 (Homo sapiens, UniProt P52333).
T1 construct: The Ramos B-cell line was acquired from ATCC (ATCC Catalog No. CRL-1596); host or cells: Ramos B-cell line (human)
T1 sequence (P52333 1-1124): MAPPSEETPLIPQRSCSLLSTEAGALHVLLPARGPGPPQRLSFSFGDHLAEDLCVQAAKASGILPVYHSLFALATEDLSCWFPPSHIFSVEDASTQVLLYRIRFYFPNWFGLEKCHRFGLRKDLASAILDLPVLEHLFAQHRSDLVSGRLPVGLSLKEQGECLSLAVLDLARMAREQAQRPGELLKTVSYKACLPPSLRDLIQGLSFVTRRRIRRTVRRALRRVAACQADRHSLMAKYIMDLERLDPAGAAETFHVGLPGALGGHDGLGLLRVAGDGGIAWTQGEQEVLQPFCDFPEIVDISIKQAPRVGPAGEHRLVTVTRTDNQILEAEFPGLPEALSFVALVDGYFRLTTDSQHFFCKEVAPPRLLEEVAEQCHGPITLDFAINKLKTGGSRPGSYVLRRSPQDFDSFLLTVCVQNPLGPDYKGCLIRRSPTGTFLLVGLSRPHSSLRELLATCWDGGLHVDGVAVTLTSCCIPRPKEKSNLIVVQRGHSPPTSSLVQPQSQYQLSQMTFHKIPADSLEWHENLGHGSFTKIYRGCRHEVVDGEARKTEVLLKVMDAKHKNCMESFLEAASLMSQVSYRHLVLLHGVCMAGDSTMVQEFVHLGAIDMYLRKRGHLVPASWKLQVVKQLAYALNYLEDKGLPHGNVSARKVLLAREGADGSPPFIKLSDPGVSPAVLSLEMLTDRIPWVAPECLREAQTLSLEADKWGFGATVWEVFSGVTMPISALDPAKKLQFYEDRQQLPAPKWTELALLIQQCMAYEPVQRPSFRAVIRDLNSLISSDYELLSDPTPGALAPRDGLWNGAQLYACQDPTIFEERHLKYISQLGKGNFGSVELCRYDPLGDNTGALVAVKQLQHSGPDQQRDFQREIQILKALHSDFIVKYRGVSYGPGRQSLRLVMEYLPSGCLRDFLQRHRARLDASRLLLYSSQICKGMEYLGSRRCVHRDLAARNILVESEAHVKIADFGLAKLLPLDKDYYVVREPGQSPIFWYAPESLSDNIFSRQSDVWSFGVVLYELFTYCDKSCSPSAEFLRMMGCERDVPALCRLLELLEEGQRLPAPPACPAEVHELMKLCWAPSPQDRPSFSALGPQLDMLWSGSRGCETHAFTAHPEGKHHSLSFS
Put plainly: Assay for CD23 expression on Ramos B-cells stimulated by IL-4 (Table IV: ability to inhibit JAK3 activity). Format: cell-based. Conditions: tested under conditions described in Example 3 (so in the source). An excerpt:
One means of assaying for such inhibition is detection of the effect of the 2,4-pyrimidinediamine compounds on the upregulation of downstream gene products. In the Ramos/IL4 assay, B-cells are stimulated with the cytokine Interleukin-4 (IL-4) leading to the activation of the JAK/Stat pathway through phosphorylation of the JAK family kinases, JAK1 and JAK3, which in turn phosphorylate and activate the transcription factor Stat-6. […] To study the effect of inhibitors (for example, the 2,4-substituted pyrimindinediamine compounds described herein) on the JAK1 and JAK3 kinases, human Ramos B cells are stimulated with human IL-4. 20 to 24 hours post stimulation, cells are stained for upregulation of CD23 and analyzed using FACS.
B-cells stimulated with cytokine Interleukin-4 (IL-4) activate the JAK/Stat pathway through phosphorylation of the JAK family kinases, JAK-1 and JAK-3, which in turn phosphorylate and activate the transcription factor Stat-6. […] To study the effect of inhibitors on the JAK family kinases, human Ramos B cells were stimulated with human IL-4 and the surface expression of CD23 was measured.
The day before the experiment, Ramos B-cells were diluted to 3.5×10^5 cells/mL to ensure that they were in a logarithmic growth phase.
Cells were spun down and suspended in RPMI with 5% serum. 5×10^4 cells were used per point in a 96-well tissue culture plate. Cells were pre-incubated with compound or DMSO (Sigma-Aldrich, St. Louis, Mo., Cat No. D2650) vehicle control for 1 hour in a 37° C. incubator. Cells were then stimulated with IL-4 (Peprotech Inc., Rocky Hill, N.J., Cat No. 200-04) for a final concentration of 50 units/mL for 20-24 hours. […] Detection was performed using a BD LSR I System Flow Cytometer, purchased from Becton Dickinson Biosciences of San Jose, Calif.
The compound designations in Table IV are consistent with those of Tables I-II above.

pIC50: −log10 of the molar value. Counter-ions that a name gives are not always drawn. Where only a bound is given, the exact number is not on record here.

13 compounds from US11174251B2, “Compositions and methods for inhibition of the JAK pathway” (Rigel Pharmaceuticals, Inc., priority 2010, dated 2021) can be followed below.

Usually pIC50 stands for −log10 of the IC50, conventionally taken in molar units. Lower therefore signals a large IC50.

As for `COc1cc(Nc2ncc(C)c(Nc3ccc4oc(=O)[nH]c4c3)n2)cc(C)c1CO` [Compound I-129, 4-(4-(2,3-dihydro-2-oxobenzo[d]oxazol-5-ylamino)-5-methylpyrimidin-2-ylamino)-2-methoxy-6-methylbenzyl alcohol trifluoroacetate salt], the pIC50 was > 6.30.

Regarding `COCCOc1c(C)ccc(Nc2nccc(Nc3ccc4oc(=O)[nH]c4c3)n2)c1F` [Compound I-62, 5-(2-(2-fluoro-3-(2-methoxyethoxy)-4-methylphenylamino)pyrimidin-4-ylamino)benzo[d]oxazol-2(3H)-one], the pIC50 was 5.30 to 6.30.

For the compound `COC(=O)c1cnc(Nc2cc(C)c(F)c(OC)c2)nc1Nc1ccc2oc(=O)[nH]c2c1` [Compound I-58, 2-(4-Fluoro-3-methoxy-5-methyl-phenylamino)-4-(2-oxo-2,3-dihydro-benzooxazol-5-ylamino)-pyrimidine-5-carboxylic acid methyl ester trifluoroacetate salt], the pIC50 is < 5.00.

As to `Cc1ccc(Nc2ncc(Cl)c(Nc3ccc4oc(=O)[nH]c4c3)n2)cc1C` [Compound I-5, 5-(5-chloro-2-(3,4-dimethylphenylamino)pyrimidin-4-ylamino)benzo[d]oxazol-2(3H)-one trifluoroacetate salt], the pIC50 is > 6.30.

For `O=c1[nH]c2cc(Nc3ccnc(Nc4cc(F)cc(F)c4)n3)ccc2o1` [Compound I-13, 5-(2-(3,5-difluorophenylamino)pyrimidin-4-ylamino)benzo[d]oxazol-2(3H)-one trifluoroacetate salt], the pIC50 was 5.30 to 6.30.

`COc1c(Br)ccc(Nc2ncc(C)c(Nc3ccc4oc(=O)[nH]c4c3)n2)c1F` [Compound I-27, 5-[2-(4-Bromo-2-fluoro-3-methoxy-phenylamino)-5-methyl-pyrimidin-4-ylamino]-3H-benzooxazol-2-one]: the pIC50 is > 6.30.

Turning to `O=C1NCC=Cc2cc(Nc3ncc(F)c(Nc4ccc5oc(=O)[nH]c5c4)n3)ccc21` [II-23, 5-(5-fluoro-2-(1-oxo-2,3-dihydro-1H-benzo[c]azepin-7-ylamino)pyrimidin-4-ylamino)benzo[d]oxazol-2(3H)-one formate salt], the pIC50 is > 6.30.

As for `COc1cc(Nc2ncc(F)c(Nc3ccc4oc(=O)[nH]c4c3)n2)cc(F)c1C` [Compound I-121, 5-(5-fluoro-2-(3-fluoro-5-methoxy-4-methylphenylamino)pyrimidin-4-ylamino)benzo[d]oxazol-2(3H)-one trifluoroacetate salt], the pIC50 was > 6.30.

Turning to `COc1cc(Nc2ncc(F)c(Nc3cc(F)c4oc(=O)[nH]c4c3)n2)cc(C)c1C` [Compound I-112, 7-fluoro-5-(5-fluoro-2-(3-methoxy-4,5-dimethylphenylamino)pyrimidin-4-ylamino)benzo[d]oxazol-2(3H)-one trifluoroacetate salt], the pIC50 was > 6.30.

`Cc1cnc(Nc2cc(C)c(C)c(C(=O)O)c2)nc1Nc1ccc2oc(=O)[nH]c2c1` [Compound I-145, N2-(3-carboxy-4,5-dimethyl)phenyl-5-methyl-N4-(2-oxo-2,3-dihydro-1,3-benzoxazol-5-yl)-2,4-pyrimidinediamine] gave a pIC50 of 5.30 to 6.30.

`COc1cc(Nc2ncc(F)c(Nc3cc(C)c4oc(=O)[nH]c4c3)n2)cc(C)c1OC` [Compound I-183, 5-(2-(3,4-dimethoxy-5-methylphenylamino)-5-fluoropyrimidin-4-ylamino)-7-methylbenzo[d]oxazol-2(3H)-one trifluoroacetate salt]: the pIC50 was > 6.30.

In turn, `COc1cc(Nc2ncc(C)c(Nc3ccc4oc(=O)[nH]c4c3)n2)c(F)cc1C` [Compound I-122, 5-(2-(2-fluoro-5-methoxy-4-methylphenylamino)-5-methylpyrimidin-4-ylamino)benzo[d]oxazol-2(3H)-one trifluoroacetate salt] had a pIC50 of 5.30 to 6.30.

As to `COc1ccc(Nc2ncc(F)c(Nc3ccc4oc(=O)[nH]c4c3)n2)cc1-c1ccncc1` [Compound I-208, 5-(2-(4-methoxy-3-(pyridin-4-yl)phenylamino)-5-fluoropyrimidin-4-ylamino)benzo[d]oxazol-2(3H)-one formate salt], the pIC50 was > 6.30.
